In US20250002526A1, “PHARMACEUTICAL COMPOSITION HAVING ANTI-CANCER IMMUNOSTIMULATING EFFECT AND/OR IMMUNE CHECKPOINT INHIBITION POTENTIATING EFFECT” (KYUSHU UNIVERSITY, NATIONAL UNIVERSITY CORPORATION, priority 2021, published 2025):
Read-outs that look alike come from different tables or passages of the source.

What was measured:
[1] = target: T1, recombinant human SULT2B1b protein (Homo sapiens, UniProt O00204); test: SULT assay (in vitro SULT2B1b enzymatic activity measurement); format: biochemical; settings: for activity at 200 µM: test compound 200 μM, relative to DMSO control (100%), read-out: in vitro SULT2B1b assay % activity at 200 μM
T1 sequence (O00204 1-365): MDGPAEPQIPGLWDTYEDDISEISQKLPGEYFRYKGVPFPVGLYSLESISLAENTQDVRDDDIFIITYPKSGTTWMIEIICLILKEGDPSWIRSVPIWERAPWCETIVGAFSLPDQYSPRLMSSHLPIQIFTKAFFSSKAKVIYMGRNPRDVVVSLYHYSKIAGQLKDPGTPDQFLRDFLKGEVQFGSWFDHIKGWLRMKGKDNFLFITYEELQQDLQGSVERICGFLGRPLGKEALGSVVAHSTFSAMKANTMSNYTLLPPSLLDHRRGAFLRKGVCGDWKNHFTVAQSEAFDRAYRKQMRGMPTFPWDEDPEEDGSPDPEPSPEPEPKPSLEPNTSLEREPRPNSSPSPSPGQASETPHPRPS
Description: For screening for a SULT2B1b inhibitor, enzymatic activity measurement for SULT2B1b was carried out by a method described in a previous report (NPL 2) with slight modifications.
The reaction solution (50 μl) was composed of 1 to 5 μg of recombinant human SULT2B1b protein, 10 μM [^3H]cholesterol (approximately 4,000 dpm/pmol), 10 mM Tris-HCl (pH 7.5, containing 5 mM MgCl2) containing 0.1 mM 3′-phosphoadenosine 5′-phosphosulfate (PAPS), 0.2 mM 2-hydroxypropyl-β-cyclodextrin, and 5% (v/v) ethanol. Recombinant human SULT2B1b protein was pre-incubated with 1 μl of a test compound (final concentration: 40 or 200 μM) or DMSO (control) at room temperature for 15 minutes, 2 mM PAPS (2.5 μl) was then added to initiate reaction, the resultant was reacted at 37° C. for 15 minutes, and 0.8 ml of ethanol was added to terminate the reaction.
The solution after the reaction was subjected to thin-layer chromatography (TLC) for separation, and then to a liquid scintillation counter to quantify radiolabeled CS.
From the percentage to the amount ([…]) of radiolabeled CS generated through reaction in the absence of the test compound (DMSO) (control), the SULT2B1b activity (% activity) of SULT2B1b protein in the presence of the test compound was evaluated, and the effect of the test compound to inhibit SULT2B1b-mediated CS production (CS production inhibitory effect) was evaluated.
In enzyme assay, SULT assay was performed with use of cholenoic acid as a compound to be tested at different cholesterol and PAPS concentrations (wherein 0.5 to 1 μg of recombinant human SULT2B1b protein was used, the preincubation time and reaction time were each 10 minutes), and the results were fitted to the Michaelis-Menten equation by using Prism 9 (GraphPad Software, Inc.) to perform enzyme kinetic analysis for the inhibition by cholenoic acid.
SULT assay was performed for the compounds as test compounds by the method described in (14) of “II. Experimental procedure” in Experiment Example 1 to evaluate the SULT2B1b inhibitory effects of the compounds.

[2] = tested on: SULT2B1b-mediated CS production in E0771-SULT cells; test: CS production inhibitory effect in E0771-SULT cells (LC/MS/MS quantification of CS); format: cell-based, mouse; settings: Mus musculus; for activity at 10 µM: relative to control (100%)
Description: CS in each human cancer tissue sample was quantified by a method described in NPL 2. To monitor the amounts of CS and/or oxysterol generated in E0771, 3LL, EG.7-OVA, and MC38 cells irrespective of the presence or absence of SULT2B1b expression, cells of each type were seeded in a 6-well plate at 5×10^5 cells/well, and the culture supernatant and cell pellet were collected after 24 hours. Subsequently, deuterium-labeled internal standard (IS) compounds (d7-CS [[…]] and d6-25-hydroxycholesterol) were added to fractions of the culture supernatant and cell pellet, each of which was subjected to extraction with 1 mL of extraction solvent (methanol/chloroform/water=5:2:2 [v/v/v]) to extract CS and oxysterol from the culture supernatant or cell pellet.
Each sample was vigorously mixed with a vortex for 1 minute, and then ultrasonicated for 5 minutes. Thereafter, the sample was centrifuged at 16,000×g and 4° C. for 5 minutes, and the supernatant (700 μl) was collected in a clean tube. Into this, 235 μl of chloroform and 155 μl of water were added and mixed, and the resultant was then subjected to vortexing followed by centrifugation to separate into an aqueous layer and an organic layer. Subsequently, 200 μl of the lowermost layer was dried under a nitrogen flow.
The dried sample was dissolved in 50 μl of methanol, and CS and oxysterol therein were quantified by liquid chromatography-tandem mass spectrometry (LC/MS/MS) with a triple quadrupole mass spectrometer (LCMS-8060; Shimadzu Corporation) equipped with an electrospray ionization (ESI) ion source in a multiple reaction monitoring (MRM) mode.
• Column: Inertsil ODS-4 (2.1×150 mm; particle size: 3 μm; GL Sciences Inc.) • Column temperature: 40° C. • Flow rate: 0.3 ml/min • Mobile phase: (A) water/acetonitrile (1:2, v/v) containing 5 mM ammonium acetate (B) Methanol/Isopropanol (1:19, v/v) Containing 5 mM Ammonium Acetate • Gradient curve: 0 min→22 min: (B) 0%→100%, • 22 min→27 min: (B) 100%, • 27 min→27.1 min: (B) 100%→0%, • 27.1 min→30 min: (B) 0% • Injection volume: 5 μl • Mass spectrometry mode: positive and negative ion modes • Electrospray voltage: 4 kV in positive ion mode, −3.5 kV in negative ion mode • Nebulizer gas flow rate: 3.0 L/min • Drying gas flow rate: 10.0 L/min • Desolvation temperature: 250° C. • Heat block temperature: 400° C. • Detector voltage: 2.16 kV • Used were MRM mode and 2 msec of dwell time per channel.
Absolute CS and oxysterol contents were calculated from calibration curves. MRM calibration curves were prepared with chromatographic peak areas for the analytes relative to peak areas for internal standards through three times of analysis for standard solutions.
The CS production effects of test compounds (compounds 1 to 19, 21, 23, 25, and 27 to 32) were evaluated with the mouse breast cancer cell line E0771 expressing SULT2B1b (E0771-SULT cells).
Specifically, as in the above description in experimental procedure (12), E0771-SULT cells were seeded in a 6-well plate at a proportion of 5×10^5 cells/well, and cultured in the presence or absence (control) of each test compound for 24 hours. After culturing, CS generated in E0771-SULT cells was quantified by LC/MS/MS according to the description in experimental procedure (12). The CS production capacity (% activity) of cells cultured in the presence of each test compound was evaluated from the percentage relative to the CS production level (control) (100%) in E0771-SULT cells cultured in the absence of the test compound, and the CS production inhibitory effect of the test compound was evaluated.

[3] = 24 h, read-out: CS production % activity at 10 μM, E0771-SULT cells, 24 hours, test compound 10 μM (Table 1)

SMILES | activity at 200 µM [1] | activity at 10 µM [2, 3] | IC50 ([1]; recombinant human SULT2B1b, read-out: IC50 value (enzyme assay)) | activity at 10 µM ([2]; 24 h, read-out: CS production % activity at 10 μM, E0771-SULT cells, 24 hours, third concentration column of Table 1, head again printed 10 μM) | activity at 20 µM ([2]; 24 h, read-out: CS production % activity at 20 μM, E0771-SULT cells, 24 hours, test compound 20 μM, relative to control without compound (100%)) | IC50 ([2]; read-out: IC50 value (CS production))
C[C@H](CCC(=O)N1CCOCC1)[C@H]1CC[C@H]2[C@@H]3CC=C4C[C@H](N=[N+]=[N-])CC[C@]4(C)[C@H]3CC[C@]12C [Compound 12, (R)-4-((3R,8S,9S,10R,13R,14S,17R)-3-azido-10,13-dimethyl-2,3,4,7,8,9,10,11,12,13,14,15,16,17-tetradecahydro-1H-cyclopenta[a]phenanthren-17-yl)-1-morpholinopentan-1-one] | 8.3% | 98.4% |  |  |  | 
CC(=O)OC1CCC2(C)C(=CCC3C2CCC2(C)C(C(C)CCC(=O)O)CCC32)C1 (centres unmarked) [Compound 17, 3-acetoxy-5-cholenoic acid] | 66.4% | 43.7% | 186 µM | 44.9% | 52.4% | 7 µM
